Assay type in all cases: in vivo
The test system of assay [1] is Echinochloa crus-galli (ECHCG). The experiment in a line: Herbicidal pre-emergence action, section A (Table A3). To be noted: application rate 1280 g/ha, visual grading after ca. 3 weeks vs untreated controls. The text has this:
(§1) Seeds of mono- and dicotyledonous weed plants were sown in plastic pots (double sowings with one species of mono- and one species of dicotyledonous weed plants per pot), in sandy loam, and covered with soil. The compounds according to the invention, formulated in the form of wettable powders (WP) or as emulsifiable concentrates (EC), were applied to the surface of the covering soil as aqueous suspension or emulsion, with the addition of 0.5% of an additive, at an application rate of 600 l of water per hectare (converted). Following treatment, the pots were placed in a greenhouse and kept under optimum growth conditions for the test plants. The visual grading of the damage to the test plants was carried out after ca. 3 weeks in comparison to untreated controls (herbicidal effect in percent (%): 100% effect=plants have died off, 0% effect=as control plants).

The subject of assay [2] is Kochia scoparia (KCHSC). The assay can be described thus: Herbicidal pre-emergence action, section A (Table A4). The note with it: application rate 1280 g/ha; visual grading after ca. 3 weeks vs untreated controls.
From the text: as §1

Assay [3] concerns Matricaria inodora (MATIN). The experiment in a line: Herbicidal pre-emergence action, section A (Table A6). The note with it: application rate 1280 g/ha; visual grading after ca. 3 weeks vs untreated controls.
From the text: as §1

In the next assay the test system is Poa annua (POAAN). The experiment in a line: Herbicidal pre-emergence action, section A (Table A7). To be noted: visual grading after ca. 3 weeks vs untreated controls.
From the text: as §1

In another assay the test system is Setaria viridis (SETVI). The assay can be described thus: Herbicidal pre-emergence action, section A (Table A8).
From the text: as §1

The test system of assay [4] is Echinochloa crus-galli (ECHCG). The assay can be described thus: Herbicidal post-emergence action, section B (Table B3). To be noted: rated visually after about 3 weeks. The protocol:
(§2) Seeds of mono- and dicotyledonous weed plants were placed in plastic pots in sandy loam soil (doubly sown with in each case one species of mono- or dicotyledonous weed plants per pot), covered with soil and cultivated in a greenhouse under controlled growth conditions. 2 to 3 weeks after sowing, the test plants were treated at the one-leaf stage. The compounds of the invention, formulated in the form of wettable powders (WP) or as emulsion concentrates (EC), were applied onto the green parts of the plants as aqueous suspension or emulsion with addition of 0.5% additive at a water application rate of 600 liters per hectare (converted). After the test plants had been kept in the greenhouse under optimum growth conditions for about 3 weeks, the activity of the preparations was rated visually in comparison to untreated controls. For example, 100% activity=the plants have died, 0% activity=like control plants.

Assay [5] deals with Kochia scoparia (KCHSC). The assay can be described thus: Herbicidal post-emergence action, section B (Table B4). To be noted: application rate 1280 g/ha, visual rating about 3 weeks after treatment vs untreated controls. The procedure:
as §2

Assay [6] has as its system Veronica persica (VERPE). The assay can be described thus: Herbicidal post-emergence action, section B (Table B10). To be noted: application rate 1280 g/ha, visual rating about 3 weeks after treatment vs untreated controls. The protocol: as §2
For assay [7], the system named is Amaranthus retroflexus (AMARE). The experiment in a line: Herbicidal post-emergence action, section B (Table B11). The note with it: application rate 1280 g/ha; visual rating about 3 weeks after treatment vs untreated controls. The procedure:
as §2

The next assay deals with Lolium rigidum (LOLRI). The experiment in a line: Herbicidal pre-emergence action, section A (Table A5). The note with it: application rate 1280 g/ha, visual grading after ca. 3 weeks vs untreated controls.
From the text: as §1

Assay [8] relates to Stellaria media (STEME). The assay can be described thus: Herbicidal pre-emergence action, section A (Table A9). The note with it: application rate 1280 g/ha.
From the text: as §1

Assay [9] concerns Veronica persica (VERPE). The experiment in a line: Herbicidal pre-emergence action, section A (Table A10). The note with it: application rate 1280 g/ha.
From the text: as §1

For assay [10], the system named is Amaranthus retroflexus (AMARE). The experiment in a line: Herbicidal pre-emergence action, section A (Table A11). The note with it: for pre-emergence activity against AMARE in %: application rate 1280 g/ha.
From the text: as §1

Assay [11] deals with Digitaria sanguinalis (DIGSA). The experiment in a line: Herbicidal pre-emergence action, section A (Table A12). The note with it: application rate 1280 g/ha.
From the text: as §1

Assay [12] concerns Stellaria media (STEME). The assay can be described thus: Herbicidal post-emergence action, section B (Table B9). To be noted: application rate 1280 g/ha; visual rating about 3 weeks after treatment vs untreated controls. The procedure:
as §2

Regarding `CCOC(=O)c1cc2c(nc1-c1ccccc1F)NCS2` [Example I-004], the “pre-emergence activity against ECHCG in %” value in assay [1] is listed as 100%. Besides, in the assay with Kochia scoparia (KCHSC) [2], the “pre-emergence activity against KCHSC in %” value is reported as 90%. In addition, the “pre-emergence activity against MATIN in %” value in assay [3] was 90%. Also, the “pre-emergence activity against POAAN in %” value in the assay on Poa annua (POAAN) (application rate 1280 g/ha) is 100%. Moreover, in the assay on Setaria viridis (SETVI) (application rate 1280 g/ha), the “pre-emergence activity against SETVI in %” value stood at 100%. Also, the “post-emergence activity against ECHCG in %” value in assay [4] (application rate 1280 g/ha) was determined as 90%. For the same compound, the “post-emergence activity against KCHSC in %” value in the assay with Kochia scoparia (KCHSC) [5] was determined as 90%. Besides, the “post-emergence activity against VERPE in %” value in the assay with Veronica persica (VERPE) [6] is reported as 90%. Also, in assay [7], the “post-emergence activity against AMARE in %” value came out at 100%.

For `Cc1ccccc1-c1nc2c(cc1C)[S+]([O-])CN2C(=O)C1CC1` (stereo not drawn) [Example I-063], the pest or weed control at 1280 g/ha in assay [1] (Echinochloa crus-galli, pre-emergence, 504 h, read-out: pre-emergence activity against ECHCG in %) is 100%; in the assay with Lolium rigidum (LOLRI) (Lolium rigidum, pre-emergence, 504 h, read-out: pre-emergence activity against LOLRI in %) it was 100%; in the assay with Stellaria media (STEME) [8] (Stellaria media, 504 h, read-out: pre-emergence activity against STEME in %), 90%; in the assay on Veronica persica (VERPE) [9] (Veronica persica, 504 h, read-out: pre-emergence activity against VERPE in %) it was 90%; in [11] (Digitaria sanguinalis, 504 h, read-out: pre-emergence activity against DIGSA in %), 100%; in the assay with Kochia scoparia (KCHSC) [5] (Bassia scoparia, post-emergence, 504 h, read-out: post-emergence activity against KCHSC in %), 90%. Further, the pest or weed control at 1280 g/ha with Veronica persica (VERPE) [6] (Veronica persica, post-emergence, 504 h, read-out: post-emergence activity against VERPE in %) amounted to 90%. The pest or weed control at 320 g/ha in the assay on Poa annua (POAAN) (Poa annua, pre-emergence, 504 h, application rate 320 g/ha, read-out: pre-emergence activity against POAAN in %) was found to be 100%; in the assay with Setaria viridis (SETVI) (Setaria viridis, 504 h, application rate 320 g/ha, read-out: pre-emergence activity against SETVI in %), 100%; in assay [10] (Amaranthus retroflexus, 504 h, application rate 320 g/ha, read-out: pre-emergence activity against AMARE in %), 90%.

With `COC(=O)CCC(=O)N1CSc2cc(C)c(-c3ccc(F)cc3F)nc21` [Example I-084], the “pre-emergence activity against ECHCG in %” value in assay [1] is reported as 100%. Further, in the assay on Kochia scoparia (KCHSC) [2], the “pre-emergence activity against KCHSC in %” value amounted to 90%. Besides, the “pre-emergence activity against LOLRI in %” value with Lolium rigidum (LOLRI) is 100%. Further, the “pre-emergence activity against POAAN in %” value in the assay with Poa annua (POAAN) (application rate 320 g/ha) is recorded as 100%. In addition, the “pre-emergence activity against SETVI in %” value in the assay with Setaria viridis (SETVI) (application rate 320 g/ha) is 100%. The “pre-emergence activity against AMARE in %” value in assay [10] was determined as 90%. In addition, in assay [11], the “pre-emergence activity against DIGSA in %” value worked out at 100%. The “post-emergence activity against KCHSC in %” value with Kochia scoparia (KCHSC) [5] stood at 90%. The “post-emergence activity against STEME in %” value in the assay with Stellaria media (STEME) [12] was found to be 90%. For the same compound, in the assay on Veronica persica (VERPE) [6], the “post-emergence activity against VERPE in %” value worked out at 90%. In addition, in assay [7], the “post-emergence activity against AMARE in %” value is given as 90%.

`CCCS(=O)(=O)N1CSc2cc(C)c(-c3cccc(Cl)c3F)nc21` [Example I-112]: the “pre-emergence activity against POAAN in %” value with Poa annua (POAAN) (application rate 1280 g/ha) is given as 100%. For the same compound, the “pre-emergence activity against SETVI in %” value with Setaria viridis (SETVI) (application rate 1280 g/ha) is 90%. Moreover, in the assay on Stellaria media (STEME) [8], the “pre-emergence activity against STEME in %” value is listed as 90%. For the same compound, the “pre-emergence activity against VERPE in %” value in the assay on Veronica persica (VERPE) [9] was determined as 90%. In addition, the “pre-emergence activity against AMARE in %” value in assay [10] worked out at 90%. The “post-emergence activity against ECHCG in %” value in assay [4] (application rate 320 g/ha) came out at 100%.
